In US20150231109A1, “COMBINATIONS (CATECHINS AND METHOTREXATE) FOR USE IN THE TREATMENT OF MELANOMAS” (UNIVERSIDAD DE MURCIA, priority 2012, published 2015):

Legend:
TYR = TYR mRNA and protein expression in melanoma cell lines; type: cell-based, human; conditions: MTX 1 μM; SK-MEL-28 and multiple melanoma cell lines
Protocol: H, Semiquantitative RT PCR of TYR, TYRP1, Pmel17, MART1, and Rab27a mRNA. SK-MEL-28 and siMITF-SK-MEL-28 cells were treated for 5 h with 1 μM MTX. mRNA levels are presented relative to β-actin mRNA and compared to their expression levels in untreated cells (1-fold).
mRNA extraction, cDNA synthesis, and conventional and qRT-PCR were performed under standard conditions. Primers were designed using Primer Express version 2.0 software (Applied Biosystems, Foster City, Calif.) and synthesized by Invitrogen (Barcelona, Spain).
Whole cell lysates were collected by adding SDS sample buffer. After extensive sonication, samples were boiled for 10 min and subjected to SDS-PAGE. Proteins were then transferred to nitrocellulose membranes and analyzed by immunoblotting (ECL Plus, GE Healthcare, Barcelona, Spain).

IGR39 cells = assay: Matrigel Boyden chamber invasion assay, IGR39; type: cell-based; conditions: IGR39, MTX 72 h, 1 μM
Protocol: FIGS. 1A-J. Methotrexate up-regulates the expression of MITF. A, The MITF rheostat, and the two-step strategy for melanoma therapy: Drug A induces MITF, driving cells to be sensitive to Drug B. B, MTX (1 μM) increases MITF mRNA determined using quantitative and conventional RT-PCR from indicated cell lines. […] C, MTX (1 μM) induces MITF protein assayed by western blotting (WB) (*P<0.05). D, Immunofluorescence of control or MTX-treated (3 h) 501 MEL cells using anti-MITF and DAPI. E, Matrigel assay of control and MTX-treated SKMEL-28 cells (48 h, 1 μM) and IGR39 (72 h, 1 μM) cells. […] Scale bar refers to all panels. F, Chromatin immunoprecipitation on TYR and Pmel17 genes of control and MTX-treated (4 h, 1 μM) SK-MEL-28 cells with qRT-PCR after immunoprecipitation with IgG, or MITF and HDAC3 antibodies. Error bars indicate standard deviations of triplicates; experiment reproduced four times with similar results. G, Scanning electron micrographs of control and MTX-treated (1 μM, 24 h) SK-MEL-28 cells. H, Semiquantitative RT PCR of TYR, TYRP1, Pmel17, MART1, and Rab27a mRNA. […]
Invasion assays were performed using a cell invasion assay kit (BD Bioscience). […] The invading cells were stained and quantified measuring the surface occupied by stained cells with a cell counter plug-in of the Image J software.

[1] = test system: melanoma cells (SK-MEL-28); assay: dNTP pool extraction and analysis; type: cell-based, human
Protocol: FIGS. 2A-N. MTX and TMECG combination therapy induces apoptosis via dTTP depletion and DNA-damage. A, Intracellular accumulation of TMECG-QM in SK-MEL-28 treated with TMECG or MTX/TMECG for 24 h. B, Proliferation assays performed of control or MTX/TMECG-treated ([…]) SK-MEL-28 cells. C, Quantification of effects of MTX/TMECG treatment on SK-MEL-28 cells (*P<0.05 with respect to TMECG-treated cells). For time course assay MTX (1 μM) and TMECG (10 μM) were used. D, dNTP quantification in melanoma cells subjected to indicated treatments (*P<0.05). E, SK-MEL-28 cells treated with MTX/TMECG for the indicated times were examined by immunofluorescence for γH2AX foci (red) and DAPI (blue) (left panels), or by WB (right panels). β-actin served as a protein loading control. F, apoptosis determination at different MTX/TMECG combinations in SK-MEL-28 cells after 4 days of treatment. Data were obtained in triplicate in two independent experiments. Differences in apoptosis in MTX/TMECG treated cells were significant with respect to individual treatments for each drug concentration (p<0.05). […] K, quantification of γH2AX foci in SK-MEL-28 cells treated with MTX (1 μM) and/or TMECG (10 μM), or X-rays. […] N, Cell cycle profile determined by flow cytometry of SK-MEL-28 cells treated with a sublethal dose of MTX/TMECG. […]

## CN(Cc1cnc2nc(N)nc(N)c2n1)c1ccc(C(=O)N[C@@H](CCC(=O)O)C(=O)O)cc1 [MTX, methotrexate]
TYR
  mRNA expression of MITF differentiation target TYR and TYR protein expression: increased
IGR39 cells
  invasiveness: eliminated invasiveness
[1]
  dTTP levels: increased dTTP levels
